Strand notation (5' to 3'): a small letter for the sugar, then the base; units joined by * are phosphorothioate-linked, units joined directly phosphodiester-linked; [ ] holds rarer units or linkages, { } end groups; capitals alone tell only the bases. e = 2'-O-(2-methoxyethyl) (MOE); [5mC] = 5-methylcytosine; d = 2'-deoxy (DNA)
Assays:
human PKK mRNA [1] = assay: Antisense inhibition of human PKK mRNA in HepaRG cells, 5,000 nM (Example 2); assay type: cell-based
Procedure, shortened: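 qRT-PCR (RTS3454) read-out, RIBOGREEN-normalized; % inhibition vs untreated cells. HepaRG, 20,000 cells/well, electroporation, 5,000 nM ASO, ~24 h.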

human PKK mRNA [2] = assay: Dose-dependent antisense inhibition of human PKK in HepaRG cells, 0.19-5.00 uM (Example 5); assay type: cell-based; details: HepaRG cells; for percent inhibition of PKK at 0.19 μM / percent inhibition of PKK at 0.56 μM / percent inhibition of PKK at 1.67 μM / percent inhibition of PKK at 5.00 μM / percent inhibition of PKK at 0.19 0μM / percent inhibition of PKK at 0.56 0μM / percent inhibition of PKK at 1.67 1μM: electroporation, approximately 16 hours
Procedure, shortened: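 PKK mRNA knockdown was measured by real-time PCR (primer probe set RTS3454) about 16 h after electroporating 20,000 HepaRG cells per well with oligonucleotide at four doses from 0.19 to 5.00 μM. Levels were adjusted to RIBOGREEN-measured total RNA, and IC50 values were calculated.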

[3] = Table 7, HepaRG cells, electroporation with 5,000 nM antisense oligonucleotide, approx. 24 hours, PKK mRNA by RT-PCR (RTS3454), relative to untreated control cells
[4] = 4 point dose response, Table 41
[5] = 4 point dose response, Table 40

## 547368 (eG*e[5mC]*eA*eT*e[5mC]*dT*dG*dG*dA*dG*dT*dG*dA*dG*dA*eA*e[5mC]*e[5mC]*e[5mC]*eT; antisense) [compound 547368]
Human PKK mRNA [1]; [3]
  % inhibition: 89%
Human PKK mRNA [2]; Table 37
  percent inhibition of PKK at 0.19 μM: 0%
  percent inhibition of PKK at 0.56 μM: 0%
  percent inhibition of PKK at 1.67 μM: 31%
  percent inhibition of PKK at 5.00 μM: 80%
Human PKK mRNA [2]; 4 point dose response, Table 37
  IC50: 2500 nM

## 546216 (antisense e[5mC]*eT*eG*eG*eA*dG*dT*dG*dA*dG*dA*dA*d[5mC]*d[5mC]*d[5mC]*eT*eG*eG*e[5mC]*eA) [compound 546216]
Human PKK mRNA [1]; [3]
  % inhibition: 93%
Human PKK mRNA [2]; Table 35
  percent inhibition of PKK at 0.19 μM: 62%
  percent inhibition of PKK at 0.56 μM: 69%
  percent inhibition of PKK at 1.67 μM: 88%
  percent inhibition of PKK at 5.00 μM: 88%
Human PKK mRNA [2]; Table 41
  percent inhibition of PKK at 5.00 μM: 98%
  percent inhibition of PKK at 0.19 0μM: 23%
  percent inhibition of PKK at 0.56 0μM: 78%
  percent inhibition of PKK at 1.67 1μM: 95%
Human PKK mRNA [2]; [4]
  IC50: < 200 nM

## 546872 (e[5mC]*eA*e[5mC]*eT*eG*dT*dA*d[5mC]*d[5mC]*dT*dA*dT*dA*dA*d[5mC]*eT*e[5mC]*eT*eA*eA; antisense) [compound 546872]
Human PKK mRNA [1]; human PKK mRNA in HepaRG cells, 5-10-5 gapmers, Table 14
  % inhibition: 87%
Human PKK mRNA [2]; Table 39
  percent inhibition of PKK at 0.19 μM: 32%
  percent inhibition of PKK at 0.56 μM: 33%
  percent inhibition of PKK at 1.67 μM: 82%
  percent inhibition of PKK at 5.00 μM: 94%
Human PKK mRNA [2]; 4 point dose response, Table 39
  IC50: 400 nM
Human PKK mRNA [2]; 0.19 μM antisense oligonucleotide
  percent inhibition of PKK mRNA, 0.19 μM: 42%
Human PKK mRNA [2]; 0.56 μM antisense oligonucleotide
  percent inhibition of PKK mRNA, 0.56 μM: 13%
Human PKK mRNA [2]; 1.67 μM antisense oligonucleotide
  percent inhibition of PKK mRNA, 1.67 μM: 59%
Human PKK mRNA [2]; 5.00 μM antisense oligonucleotide
  percent inhibition of PKK mRNA, 5.00 μM: 99%
Human PKK mRNA [2]; 0.19-5.00 μM
  IC50: 1400 nM

## 547364 (eG*eA*eA*e[5mC]*e[5mC]*d[5mC]*dT*dG*dG*d[5mC]*dA*dA*d[5mC]*dA*dT*e[5mC]*e[5mC]*eA*e[5mC]*eA; antisense) [compound 547364]
Human PKK mRNA [1]; [3]
  % inhibition: 92%
Human PKK mRNA [2]; Table 36
  percent inhibition of PKK at 0.19 μM: 38%
  percent inhibition of PKK at 0.56 μM: 47%
  percent inhibition of PKK at 1.67 μM: 54%
  percent inhibition of PKK at 5.00 μM: 89%
Human PKK mRNA [2]; 4 point dose response, Table 36
  IC50: 600 nM

## 546268 (e[5mC]*eT*eT*e[5mC]*e[5mC]*dT*dT*dA*d[5mC]*dA*dG*dT*d[5mC]*dT*dT*e[5mC]*eT*eG*eG*eG; antisense) [compound 546268]
Human PKK mRNA [1]; Table 8, HepaRG cells, electroporation with 5,000 nM antisense oligonucleotide, approx. 24 hours, PKK mRNA by RT-PCR (RTS3454), relative to untreated control cells
  % inhibition: 93%
Human PKK mRNA [2]; Table 35
  percent inhibition of PKK at 0.19 μM: 56%
  percent inhibition of PKK at 0.56 μM: 50%
  percent inhibition of PKK at 1.67 μM: 82%
  percent inhibition of PKK at 5.00 μM: 93%
Human PKK mRNA [2]; Table 41
  percent inhibition of PKK at 5.00 μM: 92%
  percent inhibition of PKK at 0.19 0μM: 0%
  percent inhibition of PKK at 0.56 0μM: 71%
  percent inhibition of PKK at 1.67 1μM: 92%
Human PKK mRNA [2]; [4]
  IC50: 500 nM

## 547374 (eG*eA*eT*eA*eG*dG*dT*dG*d[5mC]*dA*dG*dA*dT*dG*dG*eT*e[5mC]*e[5mC]*eG*eA; antisense) [compound 547374]
Human PKK mRNA [1]; [3]
  % inhibition: 81%
Human PKK mRNA [2]; Table 40
  percent inhibition of PKK at 0.19 μM: 0%
  percent inhibition of PKK at 0.56 μM: 15%
  percent inhibition of PKK at 1.67 μM: 24%
  percent inhibition of PKK at 5.00 μM: 44%
Human PKK mRNA [2]; [5]
  IC50: > 5000 nM

## 547009 (eA*eA*eT*eT*eG*dG*dT*dG*dG*dT*dG*dG*dG*dA*dT*eT*eG*eG*eT*eG; antisense) [compound 547009]
Human PKK mRNA [1]; HepaRG cells, 5,000 nM antisense oligonucleotide, 5-10-5 gapmers, Table 17
  % inhibition: 73%
Human PKK mRNA [2]; Table 40
  percent inhibition of PKK at 0.19 μM: 0%
  percent inhibition of PKK at 0.56 μM: 9%
  percent inhibition of PKK at 1.67 μM: 21%
  percent inhibition of PKK at 5.00 μM: 63%
Human PKK mRNA [2]; [5]
  IC50: 3600 nM
